# Reference: patent publication US20180064739A1, “NUTRITIONAL COMPOSITION WITH HUMAN MILK OLIGOSACCHARIDES AND USES THEREOF” (Mead Johnson Nutrition Company, priority 2016, published 2018)
# How the values were obtained:
# [1] = tested on: ganglioside-bound sialic acid in corpus callosum and cerebellum; assay: Ganglioside-bound sialic acid in brain regions of suckling pigs fed sialyllactose diets (periodic acid-resorcinol reaction); format: in vivo; conditions: diet supplemented with 4 g/L, fed 21 days
# From the text: This study sought to determine whether administration of certain isomers of sialyllactose could increase or enrich sialic acid in the brain tissues of neonatal pigs. Indeed, accumulation of sialic acid in the brain during neonatal development is associated with increased cognitive functioning. Further, sialic acid (SA) is a key component of human milk oligosaccharides and neural tissues. SA accumulates in the brain rapidly during neonatal development and is thought to play an important role in brain development. […] Piglets readily consumed the formula, grew at normal rates and remained clinically healthy throughout the experiment.
# After 21 days, the pigs were euthanized and the left hemisphere of the brain was dissected into cerebrum, cerebellum, corpus callosum, and hippocampus regions. […] The lipid- and protein-bound sialic acid contents from each sample were determined using a modified periodic acid-resorcinol reaction. Free sialic acid was calculated by difference. Briefly, the sialic from the protein and ganglioside fractions was first oxidized using the periodic acid reagent, which released the oxidized sialic-aldehyde derivative quantitatively. The released sialic derivative was measured colorimetrically using the resorcinol-HCl reagent.
# [2] = tested on: heat shock protein 72 (Hsp72); assay: Liver Hsp72 after inescapable tail shock stress in diet-fed rats; format: in vivo, male F344 rats; conditions: diet for 4 weeks, after stressor exposure
# From the text: This study sought to determine whether the administration of PDX, GOS, and lactoferrin could modulate stress-evoked responses and the concentration of inflammatory cytokines and chemokines in blood or tissue. Briefly, male F344 rats were pair-housed in a barrier facility and fed experimental or control diet for 4 weeks. The diet formulations were as follows: (1) control, (2) diet supplemented with lactoferrin (LAC), (3) diet supplemented with GOS and PDX, and (4) diet supplemented with GOS, PDX, and Lactoferrin.
# The rats were pair housed in standard Nalgene Plexiglas cages (45 cm×25.2 cm×14.7 cm) and had ad libitum access to food and water for the duration of the experimental procedures. Food consumption was monitored three times per week by weighing the chow pellets within each food hopper. Following 4 weeks on the diets, rats were exposed to inescapable (IS) or remained within their home cage undisturbed (home cage controls; HCC). IS consisted of 100, 1.5 mA inescapable tail shocks administered at variable intervals over a period of approximately 2 hours. Rats exposed to IS were restrained in Broome-style Plexiglas tubes (23.4 cm in length and 7.0 cm in diameter) with their tails exposed for electrode attachment.
# Furthermore, in the same study heat shock protein 72 (Hsp72) was measured in the liver. […]
# [3] = tested on: microbial taxa of the proximal and distal colon; assay: Gut microbiome of suckling pigs, 16S rDNA Illumina sequencing of colon digesta; format: in vivo; conditions: 21 days
# From the text: This study sought to determine whether administration of certain isomers of sialyllactose could modulate the microbiome of developing neonatal pigs, i.e. suckling pigs. Indeed, selectively promoting beneficial gut microbiota in preterm and term infants, toddlers, and children may provide long-term health benefits, including neuronal benefits. Briefly, day-old pigs were randomized among 6 diets; (1) control diet, (2) diet supplemented with 2 g/L of 3′-sialyllactose, (3) diet supplemented with 4 g/L of 3′-sialyllactose, (4) diet supplemented with 2 g/L of 6′-sialyllactose, (5) diet supplement with 4 g/L of 6′-sialyllactose, and (6) 2 g/L PDX and 2 g/L GOS. The pigs were fed three times per day for 21 days.
# Pigs were euthanized and intestinal digesta were analyzed from the proximal and distal colon. The microbiome analysis was performed via 16S rDNA Illumina sequencing. Briefly, DNA was extracted from digesta using the UltraClean Tissue and Cells DNA Isolation Kit (MoBio). The DNA was then cleaned using PowerClean DNA Clean-Up Kit (ThermoFisher Scientific, Waltham, Mass.) and quantified with the Qubit Quant-iT dsDNA Broad- Range Kit (MoBio Laboratories, Carlsbad, Calif.). The V4 region of 16S ribosomal RNA was amplified using primers 515F (5#-GTGCCAGCMGCCGCGGTAA-3#) and 806R (5#-[…]-3#). Resulting PCR products were sequenced using Illumina MiSeq paired-end technology. High-quality sequences were searched against Greengenes database and then clustered at 97% sequence identity to form operational taxonomic units (OTUs) and assigned taxonomic classification. Similarity between microbial communities was assessed using the Bray-Curtis distance metric and then visualized using principal coordinates analysis. To test the community differences between microbiota between all groups of samples, we used the Adonis function. Because all genera were considered in the test, the Bonferroni multiple comparison correction was applied.
# [4] = supplemented diet, colon digesta
compound,measurement,setting,value
CC(=O)N[C@H]1[C@H]([C@H](O)[C@H](O)CO)O[C@@](O[C@H]2[C@@H](O)[C@@H](CO)O[C@@H](O[C@H]3[C@H](O)[C@@H](O)C(O)O[C@@H]3CO)[C@@H]2O)(C(=O)O)C[C@@H]1O (stereo partly shown) [3′-sialyllactose],increase of ganglioside-bound sialic acid in the cerebellum compared to control pigs,[1],over 10%
lactoferrin,effect of stress on liver Hsp72 expression,[2],reduction in the effect of stress
CC(=O)N[C@H]1[C@H]([C@H](O)[C@H](O)CO)O[C@@](OC[C@H]2O[C@@H](O[C@H]3[C@H](O)[C@@H](O)[C@H](O)O[C@@H]3CO)[C@H](O)[C@@H](O)[C@H]2O)(C(=O)O)C[C@@H]1O [6′-sialyllactose],"bacterial taxa of Collinsella aerofaciens, Ruminococcus, Faecalibacterium and Prevotella","[3]; diet supplemented with 4 g/L, compared to the control diet",increase
same,microbiome difference versus control diet,"[3]; diet supplemented with 4 g/L, proximal and distal colon",statistically significant microbiome difference
same,bacterial taxa belonging to the phyla Actinobacteria and Bacteroidetes,"[3]; diet supplemented with 4 g/L, versus control diet",statistically significant increase
same,"taxa of the family Enterobacteriaceae and Enterococaceae, fold lower than in the control diet",[3]; [4],2.3 fold
same,"taxa of the family Lachnospiraceael and order Lactobacillales, fold lower than in the control diet",[3]; [4],4 fold
